Experimental data taken from patent US9314474B2, “Formulations of 14-epi-analogues of vitamin D” (HYBRIGENICS, SA, priority 2010, dated 2016).
Read-outs that look alike come from different tables or passages of the source. One block for each compound: values may come before it.

Key:
[1] = humans, previously determined; cited from earlier work
[2] = human volunteers, cited from earlier work
[3] = in vivo
From the text: Inecalcitol is a synthetic derivative of calcitriol, the natural active metabolite of vitamin D3.

[4] = in vivo; cited from earlier work
[5] = Maximal tolerated dose in humans; format: in vivo, human; details: oral
[6] = in vivo; cited from earlier work; remark: listed apart in the source
[7] = rats; cited from earlier work
[8] = cynomolgus monkey, in vivo, po
Experimental: Male cynomolgus monkey received a single oral administration of a high dose of inecalcitol (2 mg/kg) in the same volume (5 ml/kg) for each excipient. Blood samples were drawn at the time of administration (To) and 15, 30, 45, 60, 90 minutes, 3, 6, 9 and 24 hours later. Plasma aliquots were prepared on heparinized tubes and unchanged inecalcitol was specifically assayed by HPLC/MS/MS method.

Compound: C=C1/C(=C\C=C2/CCC[C@]3(C)[C@@H]([C@H](C)CCCC(C)(C)O)CC[C@@H]23)C[C@@H](O)C[C@@H]1O [calcitriol, 1,25-dihydroxy-cholecalciferol]
maximal tolerated dose [1]: 45 μg once a week

Compound: C=C1CC[C@H](O)C/C1=C/C=C1\CCC[C@]2(C)[C@@H]([C@H](C)CCCC(C)C)CC[C@@H]12 [cholecalciferol]
bioavailability from arachis oil capsules versus MCT capsules ([2]; fasting state): about twice higher | bioavailability from arachis oil capsules versus MCT capsules ([2]; given with a standard meal): no difference was observed

Compound: C[C@H](CC#CC(C)(C)O)[C@H]1CC[C@@H]2/C(=C/C=C3C[C@@H](O)C[C@H](O)C3)CCC[C@@]21C [inecalcitol, 19-nor-9,10-seco-14βH-cholesta-5(Z),7(E)-dien-23-ino-1α,3β,25-triol-23-yne]
calcemic activity [3]: very low calcemic activity | calcemic effects compared with calcitriol [4]: markedly lower calcemic effects | maximal tolerated dose [5]: 4 mg per day

Compound: C=C1/C(=C\C=C2/CCC[C@]3(C)[C@@H]([C@H](C)/C=C/C=C/C(O)(CC)CC)CC[C@@H]23)C[C@@H](O)C[C@@H]1O [seocalcitol]
bioavailability of complex system versus simple solutions in MCT or LCT [6]: without any improvement in bioavailability | bioavailability, LCT- versus MCT-based formulations [7]: no difference was observed

absorption of inecalcitol compared with MCT (in words) [8]: better absorbed | AUC0-24 h (%) ([8]; 2 mg/kg): 132% | Cmax (−fold) ([8]; 2 mg/kg): 3.0 fold | Tmax ([8]; 2 mg/kg): 1.5 h
Compound: Sunflower oil

Compound: elocalcitol
maximal tolerated dose [1]: 150 μg per day
